Source: patent publication US10220039B2, “Method of treating polycystic kidney diseases with ceramide derivatives” (Genzyme Corporation, priority 2007, dated 2019)

System: jck mice
Experiment: jck mouse model of polycystic kidney disease, 0.225% Compound A in feed, 26-64 days of age
Assay type: in vivo
Settings: for K/BW ratio (%) / Body weight / BUN / Cystic volume (% BW): treated, 26-64 days of age; for K/BW ratio (%) / Body weight: 0.225% in feed ad libitum; for Body weight: at sacrifice; for BUN / Cystic volume (% BW): 0.225% in feed; for Cystic volume (% BW): percentage cystic area multiplied by kidney/body weight ratio
Procedure: jck mice was administered Compound A ad libitum in feed (0.225% Compound A mixed with a standard diet chow in powdered format) from 26-64 days of age. Control jck mice were fed a control powdered diet from 26-64 days of age. At 63 days of age, animals were transferred to metabolic cages for 24 hour urine collection. At 64 days of age, animals were sacrificed by CO2 administration. Blood was collected by heart puncture for serum isolation. Kidneys were isolated and bisected; half of each kidney was fixed in 4% paraformaldehyde in PBS overnight for paraffin embedding and H&E staining.
Total body weight and kidney weight were determined at sacrifice.
Cyst volume was measured by quantitating the percentage of cystic area in histological sections of kidneys from the treated and control animals, multiplied by the kidney/body weight ratio.
Blood urea nitrogen (BUN) levels were determined in serum samples derived from animals at sacrifice.

[1] = treated vs control jck mice, p-value<0.05, two-tailed t-test

## CCCCCCCCC(=O)N[C@H](CN1CCCC1)[C@H](O)c1ccc2c(c1)OCCO2 [Compound A, N-((1R,2R)-1-(2,3-dihydrobenzo[1,4|]dioxin-6-yl)-1-hydroxy-3-(pyrrolidin-1-yl)propan-2-yl)nonanamide]
Female jck mice
  K/BW ratio (%): 3.57 ± 0.58 %
  Body weight: 15.93 ± 1.65 g
  Cystic volume (% BW): 0.58 ± 0.29 % BW
Female jck mice, serum at sacrifice
  BUN: 34.67 ± 9.41 mg/dL
In feed at 0.225%, both males and females
  cystic disease, as measured by kidney/body weight ratio and cyst volume: statistically significant reduction
Jck mice
  PKD in a mouse model: Effectively Inhibited PKD
Male jck mice
  K/BW ratio (%): 4.46 ± 0.46 %
  Body weight: 18.43 ± 1.82 g
  Cystic volume (% BW): 0.88 ± 0.23 % BW
Male jck mice, serum at sacrifice
  BUN: 39.25 ± 10.70 mg/dL
Treated animals relative to controls, in feed at 0.225%, both males and females
  renal function: improved renal function
[1]
  cyst volume: significant decrease
  kidney weight/body weight ratio: significant difference
  total body weight: statistically significant decrease
Treated vs untreated control jck mice, serum at sacrifice, p-value<0.05, two-tailed t-test
  BUN levels: significant reduction
